The target of one test is human O-GlcNAcase (Homo sapiens (Human), UniProt O60502). Briefly: Assay for determination of Ki values for inhibition of O-GlcNAcase activity (fluorescence-based hOGA). The test is classed as biochemical. The settings on record: purified human O-GlcNAcase 0.7 nM, 4-Methylumbelliferyl N-acetyl-β-D-glucosaminide substrate, pH 7.0, Cheng-Prusoff. The method, then: Experimental Procedure for Kinetic Analyses: Enzymatic reactions were carried out in a reaction containing 50 mM NaH2PO4, 100 mM NaCl and 0.1% BSA (pH 7.0) using 2 mM 4-Methylumbelliferyl N-acetyl-β-D-glucosaminide dihydrate (Sigma M2133) dissolved in ddH2O, as a substrate. The amount of purified human O-GlcNAcase enzyme used in the reaction was 0.7 nM. Test compound of varying concentrations was added to the enzyme prior to initiation of the reaction. The reaction was performed at room temperature in a 96-well plate and was initiated with the addition of substrate. The production of fluorescent product was measured every 60 sec for 45 min with a Tecan Infinite M200 plate-reader with excitation at 355 nm and emission detected at […], with 4-Methylumbelliferone (Sigma M1381) used to produce a standard curve. The slope of product production was determined for each concentration of compound tested and plotted, using standard curve fitting algorithms for sigmoidal dose response curves. The values for a four parameter logistic curve fit of the data were determined.
Sequence of human O-GlcNAcase (O60502 whole entry): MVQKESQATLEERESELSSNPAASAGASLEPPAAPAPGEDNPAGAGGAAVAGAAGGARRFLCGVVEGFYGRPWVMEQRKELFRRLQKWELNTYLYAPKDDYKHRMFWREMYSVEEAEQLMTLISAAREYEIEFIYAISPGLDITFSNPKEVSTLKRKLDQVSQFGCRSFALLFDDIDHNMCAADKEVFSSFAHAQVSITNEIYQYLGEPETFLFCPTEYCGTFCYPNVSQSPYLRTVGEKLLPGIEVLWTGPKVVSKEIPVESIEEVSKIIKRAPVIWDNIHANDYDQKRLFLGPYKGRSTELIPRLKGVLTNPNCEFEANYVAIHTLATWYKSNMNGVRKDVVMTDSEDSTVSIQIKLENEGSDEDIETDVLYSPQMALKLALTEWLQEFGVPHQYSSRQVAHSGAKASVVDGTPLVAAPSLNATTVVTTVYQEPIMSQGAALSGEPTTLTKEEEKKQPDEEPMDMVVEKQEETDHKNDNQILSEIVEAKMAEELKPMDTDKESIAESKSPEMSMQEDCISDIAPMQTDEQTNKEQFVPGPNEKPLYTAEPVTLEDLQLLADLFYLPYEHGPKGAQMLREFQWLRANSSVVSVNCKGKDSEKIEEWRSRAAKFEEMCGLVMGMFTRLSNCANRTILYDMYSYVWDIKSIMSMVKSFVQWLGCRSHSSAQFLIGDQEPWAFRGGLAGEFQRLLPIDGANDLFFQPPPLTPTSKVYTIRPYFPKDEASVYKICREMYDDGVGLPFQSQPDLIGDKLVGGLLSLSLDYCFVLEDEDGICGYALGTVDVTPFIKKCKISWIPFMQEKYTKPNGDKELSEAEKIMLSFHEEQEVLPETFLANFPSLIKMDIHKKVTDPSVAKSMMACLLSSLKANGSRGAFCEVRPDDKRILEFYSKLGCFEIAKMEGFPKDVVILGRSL
K1 values were determined using the Cheng-Prusoff equation; the Km of O-GlcNAcase for substrate was 0.2 mM.

For another test, the target named is O-GlcNAcase (Rattus norvegicus (Rat), UniProt Q8VIJ5). Briefly: Cell-based ELISA of O-GlcNAcylated protein (RL-2 antibody) in PC-12 cells. To be noted: rat PC-12 cells, 24 h treatment, O-GlcNAcylated protein detected with RL-2 antibody. From the text:
Inhibition of O-GlcNAcase, which removes O-GlcNAc from cellular proteins, results in an increase in the level of O-GlcNAcylated protein in cells. An increase in O-GlcNAcylated protein can be measured by an antibody, such as RL-2, that binds to O-GlcNAcylated protein. The amount of O-GlcNAcylated protein:RL2 antibody interaction can be measured by enzyme linked immunosorbant assay (ELISA) procedures.
A variety of tissue culture cell lines, expressing endogenous levels of O-GlcNAcase, can be utilized; examples include rat PC-12, and human U-87, or SK-N-SH cells. In this assay, rat PC-12 cells were plated in 96-well plates with approximately 10,000 cells/well. […] If desired, the total protein concentration of samples was determined using 20 μl of the sample using the BCA method.
The ELISA portion of the assay was performed in a black Maxisorp 96-well plate that was coated overnight at 4° C. with 100 μL/well of the cell lysate (1:10 dilution of the lysate with PBS containing protease inhibitors, phosphatase inhibitors, and PMSF). […] The detection reaction was incubated for 15 minutes at room temperature and then read with excitation at 530 nm and emission at 590 nm.
The amount of O-GlcNAcylated protein, as detected by the ELISA assay, was plotted for each concentration of test compound using standard curve fitting algorithms for sigmoidal dose response curves. […]
On the technique in general: An ELISA detects its analyte on a solid surface through an enzyme-linked reagent.

Structures are written as SMILES.

Ki and EC50 data for eight compounds are collected here from US8927507B2, “Selective glycosidase inhibitors and uses thereof” (priority 2011, dated 2015).

By Ki is commonly meant the equilibrium dissociation constant of an inhibitor or competing ligand from its target. A low value points to a stronger hold on the target. The EC50 is the midpoint of the concentration-response curve. Low readings indicate a more potent agent, high ones a less potent agent.

Sequence of O-GlcNAcase (Q8VIJ5 whole entry): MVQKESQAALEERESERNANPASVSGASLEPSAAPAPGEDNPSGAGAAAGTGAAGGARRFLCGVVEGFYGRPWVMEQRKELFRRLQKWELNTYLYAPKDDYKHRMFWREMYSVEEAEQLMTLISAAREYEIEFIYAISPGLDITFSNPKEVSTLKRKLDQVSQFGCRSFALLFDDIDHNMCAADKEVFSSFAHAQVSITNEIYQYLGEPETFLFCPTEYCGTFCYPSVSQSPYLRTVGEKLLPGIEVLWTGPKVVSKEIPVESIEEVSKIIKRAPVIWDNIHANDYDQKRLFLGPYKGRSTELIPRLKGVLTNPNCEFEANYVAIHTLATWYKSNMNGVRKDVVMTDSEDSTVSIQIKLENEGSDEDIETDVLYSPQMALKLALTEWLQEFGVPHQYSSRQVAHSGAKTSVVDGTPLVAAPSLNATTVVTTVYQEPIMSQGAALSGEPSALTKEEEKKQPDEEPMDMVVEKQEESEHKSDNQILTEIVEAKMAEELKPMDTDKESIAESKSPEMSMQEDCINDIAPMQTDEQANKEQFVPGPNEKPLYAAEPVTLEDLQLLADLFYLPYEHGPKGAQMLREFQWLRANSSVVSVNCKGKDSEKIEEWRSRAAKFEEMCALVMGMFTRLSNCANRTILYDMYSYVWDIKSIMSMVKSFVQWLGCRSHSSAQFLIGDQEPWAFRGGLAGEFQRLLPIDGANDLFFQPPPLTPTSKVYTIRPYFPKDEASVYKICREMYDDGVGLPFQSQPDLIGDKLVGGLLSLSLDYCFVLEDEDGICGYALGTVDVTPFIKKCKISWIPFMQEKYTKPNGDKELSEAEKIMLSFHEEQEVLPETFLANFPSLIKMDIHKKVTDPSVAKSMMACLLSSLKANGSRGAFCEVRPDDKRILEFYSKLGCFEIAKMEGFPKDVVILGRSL

Compound `OC[C@H]1O[C@@H]2SC(NCCCF)=N[C@@H]2[C@@H](O)[C@@H]1O` [Example 2, (3aR,5R,6S,7R,7aR)-2-((3-fluoropropyl)amino)-5-(hydroxymethyl)-5,6,7,7a-tetrahydro-3aH-pyrano[3,2-d]thiazole-6,7-diol] displayed a Ki at human O-GlcNAcase of 15 nM.
On human O-GlcNAcase, `OC[C@H]1O[C@@H]2SC(NCCC3CC3)=N[C@@H]2[C@@H](O)[C@@H]1O` [Example 3, (3aR,5R,6S,7R,7aR)-2-(2-Cyclopropylethylamino)-5-(hydroxymethyl)-5,6,7,7a-tetrahydro-3aH-pyrano[3,2-d]thiazole-6,7-diol] came in with a Ki of 4.4 nM.
Still for that read-out and setting: as for `OC[C@H]1O[C@@H]2SC(NCC3CC3)=N[C@@H]2[C@@H](O)[C@@H]1O` [Example 11, (3aR,5R,6S,7R,7aR)-2-((cyclopropylmethyl)amino)-5-(hydroxymethyl)-5,6,7,7a-tetrahydro-3aH-pyrano[3,2-d]thiazole-6,7-diol], the figure is 15 nM.
As to `CCCN(C)C1=N[C@@H]2[C@@H](O)[C@H](O)[C@@H](CO)O[C@@H]2S1` [Example 15, (3aR,5R,6S,7R,7aR)-5-(hydroxymethyl)-2-(methyl(propyl)amino)-5,6,7,7a-tetrahydro-3aH-pyrano[3,2-d]thiazole-6,7-diol], at human O-GlcNAcase, the Ki came out at 15 nM. Further, the EC50 at O-GlcNAcase turned out to be 196 nM.
With `C=CCN(C)C1=N[C@@H]2[C@@H](O)[C@H](O)[C@@H](CO)O[C@@H]2S1` [Example 16, (3aR,5R,6S,7R,7aR)-2-(allyl(methyl)amino)-5-(hydroxymethyl)-5,6,7,7a-tetrahydro-3aH-pyrano[3,2-d]thiazole-6,7-diol], at human O-GlcNAcase, the Ki came to 2.8 nM. Also, on O-GlcNAcase, it took 152 nM to reach a half-maximal effect (EC50).
Take `CON(C)C1=N[C@@H]2[C@@H](O)[C@H](O)[C@@H](CO)O[C@@H]2S1` [Example 18, (3aR,5R,6S,7R,7aR)-5-(hydroxymethyl)-2-(methoxy(methyl)amino)-5,6,7,7a-tetrahydro-3aH-pyrano[3,2-d]thiazole-6,7-diol]: at human O-GlcNAcase, the Ki is 11 nM.
As to `CCC(=O)NC1=N[C@@H]2[C@@H](O)[C@H](O)[C@@H](CO)O[C@@H]2S1` [Example 22, N-((3aR,5R,6S,7R,7aR)-6,7-dihydroxy-5-(hydroxymethyl)-5,6,7,7a-tetrahydro-3aH-pyrano[3,2-d]thiazol-2-yl)propionamide], on human O-GlcNAcase, the Ki worked out at 74 nM.
Still for that read-out and setting: as for `CCNC(=O)NC1=N[C@@H]2[C@@H](O)[C@H](O)[C@@H](CO)O[C@@H]2S1` [Example 29, 1-((3aR,5R,6S,7R,7aR)-6,7-dihydroxy-5-(hydroxymethyl)-5,6,7,7a-tetrahydro-3aH-pyrano[3,2-d]thiazol-2-yl)-3-ethylurea], the figure is 22 nM.
